From patent EP1714646A1, “Pharmaceutical composition containing bakuchiol for treating osteoporosis in women” (Sinphar Pharmaceutical Co., Ltd., priority 2005, dated 2006)

Experiments:
T47D = experiment: Cytotoxicity assay (CCK-8), T47D; assay type: cell-based, human; conditions: T47D (estrogen receptor positive), 48 hours incubation
From the text: (§1) Materials: DMEM (medium), RPMI (medium), L-glutamine, penicillin, streptomycin and FBS (fetal bovine serum) were obtained from Gibco (NY, USA). Culture plasticware was purchased from Coming (MA, USA). […] All other chemicals used were of reagent grade and were purchased from Sigma or E. Merck (Germany).
(§2) Cell lines and cell cultures: The human breast cancer cell lines T47D and MDA-MB231 were obtained from American Type Culture Collection (ATCC). Of both cancer cells, T47D is estrogen receptor positive, and MDA-MB231 is estrogen receptor negative. Cells were cultured at 37°C in RPMI medium containing 10% charcoal-dextran stripped fetal bovine serum for T47D cells and in DMEM medium containing 10% charcoal-dextran stripped fetal bovine serum for MDA-MB231 cells with 5% CO2. The cell proliferation was determined by counting the viable cells with trypan blue exclusion.
(§3) Cytotoxicity assay: Dispense 198 µl of cell suspension (20,000 cells for T47D per well and 10,000 cell for MDA-MB231 per well) in a 96-well plate and pre-incubate the plate for 24 hours in an incubator at 37°C with humidified 5% CO2. […] After plate was incubated for 48 hours in the incubator, media were aspirated of and new media (100 µl) were added and incubated for more 1 hour. […] Measure the absorbance at 450 nm using a ELISA reader. […]

MDA-MB231 = experiment: Cytotoxicity assay (CCK-8), MDA-MB231; assay type: cell-based, human; conditions: MDA-MB231 (estrogen receptor negative), 48 hours incubation
From the text: as §1, §2, §3

[1] = tested on: osteoporosis caused by estrogen deficiency; experiment: Ovariectomized rat osteoporosis model: bone histomorphometry and apparent bone density; assay type: in vivo, female Wistar rats
From the text: The purpose of this example is to show the potency of bakuchiol in treating osteoporosis, wherein ovary of a female rat is removed to stimulate osteoporosis caused by estrogen deficiency.
The female Wistar rats of 16 weeks old (unless specified in the other experiment description) were obtained from the stock reared by the Animal breeding center, National Scientific Council in Taipei. These rats were grouped by weights matched in order to distribute the physiological response variation from rats evenly into each group. These rats were grouping as follows: • Baseline group fed with no drug added food (n=8) • Sham operation group fed with no drug added food (Sham) (n=10) • Ovariectomy operation group fed with no drug added food (OVX) (n=8) • Ovariectomy operation group fed with Drug A (5 mg/kg) added food (OVX+A) (n=9) • Ovariectomy operation group fed with Drug B (15 mg/kg) added food (OVX+B) (n=9)
Ovariectomy (removal of ovaries) operation: Ovariectomy was induced using a protocol similar to that described by Wronski et al (Wronski et al, Endocrinology, 123 (2), 681-686 ([…]))
During the experiments, the rats were housed in hanging grid cages in groups of two at 21°C with a 12 hours dark cycle. Food (Rat-mouse diet III, adequate in 1 % of calcium content and 1.2 % of phosphate content, Purina, USA) was administered by paired feeding between the experimental and control groups. Pair-feeding was carried out by calculating the average amount of food intake in the Sham group. So give the same amount of food to the OVX , OVX+A (5 mg/kg), OVX+B (15 mg/kg) group animals the following day. These animals were fed with a period of two months except for the baseline group which were killed on the very day of doing ovariectomy or sham operation. Rats of OVX+A and OVX+B groups were fed with the usual food chuck but added certain amount of compound A and B in it respectively. Water was given ad libitum to all rats.
The test drug was weighted according to dose of 5 mg/kg and 15 mg/kg, and added into the ususal food chuck powder and mixed with 10% starch paste. After fully mixed, these chuck powder were made into mass manually and dried by air flow oven. The food with added drug to rats was performed by single blind method.
These labeling and bone histomorphometry assessment were done based on standard procedure in bone research (Lin et al, Calcif. Tissue Int., 67, 373-377 (2000)). […] Seven µm thick unstained sections were prepared for fluorescent microscopy and assessed with program Osteomeasure (3.0 version, Atlanta, USA). […]
The whole tibia and femur were stripped off attached muscles and ligaments after sacrifice. […] The weight of bone measured in the air was marked as W-air. […] The apparent bone density was calculated as [W-air/(W-air minus W-water)] […]

With C=C[C@@](C)(/C=C/c1ccc(O)cc1)CCC=C(C)C [Bakuchiol, bakuchiol] the “50% inhibition of cell growth concentrations of test compounds (IC50)” value (T47D) was 5.00 μg/cc, the “50% inhibition of cell growth concentrations of test compounds (IC50)” value (MDA-MB231) was 0.62 μg/cc and the “bone volume of proximal tibia” value ([1]; OVX+A (5 mg/kg) and OVX+B (15 mg/kg) in food, two months, vs OVX group, p < 0.001, Figure 1) was “increase”. For the same molecule, the “erosion surface (ES/BS,%) of proximal tibia” value ([1]; OVX+A (5 mg/kg) and OVX+B (15 mg/kg) in food, two months, vs OVX group, p < 0.001, Figure 3) was “inhibition of bone erosion”, the “bone apparent density of tibia” value ([1]; OVX+A (5 mg/kg) and OVX+B (15 mg/kg) in food, two months, vs OVX group, p < 0.05, Figure 2) was “increase” and the “therapeutic effect on osteoporosis” value ([1]; ovariectomized female rat, low dose (5 mg/kg)) was “possess a therapeutic effect on osteoporosis by inhibiting the bone resorption”.
